{"source": "patent US20140105959A1", "about": "“METHOD AND DEVICE FOR REDUCING DERMAL FILLER ADVERSE EVENTS” (ALLERGAN, INC., priority 2012, published 2014)", "key": {"hairless rat skin [1]": {"tested_on": "hairless rat skin", "assay": "vasoconstriction in hairless rat skin after topical phenylephrine patch", "format": "in vivo", "description": "In certain embodiments, mechanisms are provided that are effective to actively enhance transport of vasoactive drugs across the skin (mechanisms will be referred to as “enhancers” in the rest of the invention). For example, in one embodiment of the invention, the method includes the step of treating a skin site selected for dermal filler administration with a mechanism effective to enhance drug delivery across the skin prior to treating the skin site with the device or compound containing the active agent effective to reduce or ameliorate the adverse event. For example, the mechanism, hereinafter sometimes referred to as “mechanical enhancer” may comprise a mechanical device capable of gently stripping of the superficial skin layers from the epidermis. For example, the mechanism may be an adhesive tape or abrasive surface. It has been discovered that use of such mechanisms increase phenylephrine diffusion through the skin and result in significant reduction in skin's vasoconstriction time (e.g. 5 minutes) by phenylephrine using the same patch device. In certain embodiments, it might be useful to apply the mechanism, enhancement device, after filler administration, preferably in devices where the vasoactive drug may interfere with safety and/or potency of fillers. […]"}, "nasolabial folds": {"tested_on": "nasolabial folds", "assay": "visible bruising after Juvederm XC injection into patch-treated nasolabial folds of a patient", "format": "in vivo, human", "settings": "microneedle roller pretreatment, cotton-based patch about 300 ppm phenylephrine for about 7 minutes, then 0.6 cc Juvederm XC per nasolabial fold", "quoted_text": "Their physician applies, along both nasolabial folds, a tool having a rolling head with numerous microneedles to penetrate the dermis with numerous punctures about one millimeter in depth. They then apply a phenylephrine-containing cotton-based patch, formulated to about 300 ppm phenylephrine, in accordance with the invention, on the skin along the left nasolabial fold, in a way that covers the entire injection site. The patch is left in place for about 7 minutes. The physician removes the patch and then carefully injects 0.6 cc of a HA-based dermal filler, specifically, Juvederm® XC, (available from Allergan, Inc., Irvine, Calif.) into the phenylephrine-treated dermis just beneath the fold line, using a 27 gauge needle. The treatment procedure is repeated for the right nasolabial fold, for example, using another identical patch and another 0.6 cc Juvederm® XC."}, "hairless rat skin [2]": {"tested_on": "hairless rat skin", "assay": "bruising after dermal filler administration at patch-treated versus untreated rat skin", "format": "in vivo", "settings": "cotton fabric patch, phenylephrine 400 ppm, 15 minutes, then dermal filler, compared with adjacent untreated skin"}}, "data": [{"smiles": "CNC[C@H](O)c1cccc(O)c1", "note": "[phenylephrine]", "values": [{"measurement": "vasoconstriction in skin regions directly underneath the patch", "setting": "hairless rat skin [1]; cotton fabric patch, phenylephrine 400 ppm, removed after 15 minutes, hairless rat", "value": "significant vasoconstriction"}, {"measurement": "time to release, diffuse and cause significant vasoconstriction", "setting": "hairless rat skin [1]; phenylephrine formulated at 100 ppm in a topically placed cotton gauze, hairless rat skin", "value": "about 10 minutes"}, {"measurement": "skin's vasoconstriction time", "setting": "hairless rat skin [1]; same patch device, after mechanical enhancer (adhesive tape or abrasive surface stripping superficial skin layers)", "value": 5, "unit": "min"}, {"measurement": "bruising one week after the procedure", "setting": "nasolabial folds; one week", "value": "no bruising, nor red marks"}, {"measurement": "visible bruising three days after the treatment procedure", "setting": "nasolabial folds; three days", "value": "does not notice any visible bruising"}, {"measurement": "bruising at the vasoconstricted skin site, particularly along the line of injection", "setting": "hairless rat skin [2]", "value": "lower than at the untreated skin site"}]}]}
